According to patent publication US4501733A, “Polypeptides, a process for their preparation, their use, and a _process for the purification of polypeptides” (Ferring Arzneimittel GmbH, priority 1982, dated 1985):
Square brackets hold non-standard residues; d marks the D form. Peptide text beside a SMILES is read from it. * marks the point of attachment. Propionyl = CCC(=O)*

Columns and labels:
[1] = tested on: ileum from guinea pigs; test: Inhibition of SP- or Nle-SP-induced contraction of isolated guinea pig ileum (organ bath, isotonic measurement); conditions: for relative antagonistic potency (comparison of the antagonists): agonist 10^-8 M; for relative antagonistic potency (comparison of the antagonists) / Percentage inhibiting action: antagonist 10^-5 M; for Percentage inhibiting action: agonist SP or Nle-SP 10^-8 M, guinea pig ileum contraction; for substance P-antagonizing action: antagonist used in a concentration of 10^-5 M, agonist SP or Nle-SP
Source text: The ileum from guinea pigs was cut out after the animals had been sacrificed, was substantially freed from mesenteria by pulling at the caudal end and was freed from digestion products with Tyrode's solution. About 25 cm were discarded from the caudal end, and several sections of intestine 4 cm long were then removed and stored in Tyrode's solution. The Tyrode's solution was gassed with carbogen (95% of O2 and 5% of CO2). The Tyrode's solution contained the following substances per liter: 8 g of NaCl; […]; 1.3 g of CaCl2.2H2 O; 2.1 g of MgCl2.6H2 O; […]; 0.58 g of NaH2 PO4.1H2 O; and 11 g of D(+)-glucose.
The Tyrode's solution was thermostatically controlled at 38° C. in an organ bath. Each preparation retained its complete contractility for 4 to 7 hours. 4 cm sections of intestine were tied on both sides and suspended in the organ bath. The contractions of the preparation were recorded under isotonic measurement conditions via a lever on a Kymograph drum. The writing was done by a felt-tip pen arranged as a lateral pen. The load arm was 225 mm and the power arm 20 mm long. The pre-load was about 0.3 g and the paper speed was 5 mm/minute. The organ bath contained 10 ml.
As a rule, the test substances were added in volumes of 2 to 100 μl, and were distributed instantaneously in the organ bath by the gassing. All the test substances added were dissolved in Tyrode's solution or diluted with Tyrode's solution from a stock solution.
Test substances: substance P (Serva) or norleucine-SP (Ferring, Kiel) were used as agonists, in doses of between 10^-9 and 10^-7 M. The following compounds were tested as potential antagonists:
In the standard test, SP or Nle-SP was applied in a concentration of between 10^-9 and 10^-7 M, and was washed out after about 2 minutes. After a latency period of a further 3 minutes, the potential antagonist was applied in a concentration of 3×10^-6, 10^-5 or 3.3×10^-5 M, directly followed by a further dose of SP (Nle-SP). After renewed washing out and a waiting time of 3 minutes, SP (Nle-SP) was again applied in the same dose, in order to investigate whether the original contraction strength is reached.
The reduction in the relative contraction of the ileum preparations as a result of using SP analogs was regarded as a measure of the relative activity as antagonists.

[2] = tested on: ileum in guinea pigs; conditions: Folkers et al. 1981; Rosell et al. 1981; cited from earlier work
[3] = tested on: SP-induced salivation; conditions: Folkers et al. 1981; Rosell et al. 1981; cited from earlier work
[4] = tested on: vasodilation; conditions: Folkers et al. 1981; Rosell et al. 1981; cited from earlier work

Molecule	relative antagonistic potency (comparison of the antagonists) [1]	Percentage inhibiting action [1] [%]	substance P-antagonizing action [1]	inhibition of the contraction of the ileum in guinea pigs caused by SP [2]	inhibition of SP-induced salivation [3]	inhibition of vasodilation caused by antidromic nerve stimulation and SP-induced vasodilation [4]
CSCC[C@H](NC(=O)[C@H](CC(C)C)NC(=O)[C@@H](Cc1c[nH]c2ccccc12)NC(=O)[C@H](Cc1ccccc1)NC(=O)[C@@H](Cc1c[nH]c2ccccc12)NC(=O)[C@H](CCC(N)=O)NC(=O)[C@@H](N)CCCNC(=N)N)C(N)=O [compound 2, H-Arg-Gln-D-Trp-Phe-D-Trp-Leu-Met-NH2] (H-RQ[dW]F[dW]LM-NH2)	most powerful action	68.1 ± 8	substance P-antagonizing action			
CSCC[C@H](NC(=O)[C@H](CC(C)C)NC(=O)[C@@H](Cc1c[nH]c2ccccc12)NC(=O)[C@H](Cc1ccccc1)NC(=O)[C@@H](Cc1c[nH]c2ccccc12)NC(=O)[C@H](CCC(N)=O)NC(=O)[C@@H]1CCCN1)C(N)=O [compound 3, H-Pro-Gln-D-Trp-Phe-D-Trp-Leu-Met-NH2] (H-PQ[dW]F[dW]LM-NH2)	most powerful action	69.5 ± 0.5	substance P-antagonizing action			
CCC(=O)N[C@@H](CCC(N)=O)C(=O)N[C@H](Cc1c[nH]c2ccccc12)C(=O)N[C@@H](Cc1ccccc1)C(=O)N[C@H](Cc1c[nH]c2ccccc12)C(=O)N[C@@H](CC(C)C)C(=O)N[C@@H](CCSC)C(N)=O [compound 4, Propionyl-Gln-D-Trp-Phe-D-Trp-Leu-Met-NH2] (Propionyl-Q[dW]F[dW]LM-NH2)	lower but significant inhibiting action	29.3 ± 9.5	substance P-antagonizing action			
D-Pro^2, D-Phe^7 and D-Trp-^9 -SP				inhibit	inhibit	inhibit
